Reference: ChEMBL document CHEMBL5252657, “Artefenomel Regioisomer RLA-3107 Is a Promising Lead for the Discovery of Next-Generation Endoperoxide Antimalarials” (ACS Med Chem Lett, 2023)
The source made the active and inactive calls. No cut-off for these calls is given here.

Assays:
[1] = tested on: Plasmodium falciparum; test: Antiplasmodial activity against chloroquine-resistant ring stage Plasmodium falciparum W2 infected in human erythrocytes assessed as reduction in parasite growth incubated for 48 hrs by YOYO-1 dye based flow cytometric analysis; assay type: functional, organism-based; conditions: W2, Erythrocyte
[2] = tested on: Plasmodium berghei; test: Antiplasmodial activity against Plasmodium berghei infected in Swiss Webster mouse model assessed as reduction in parasitemia at 30 mg/kg, po administered as single dose and measured after 30 days by Giemsa staining based microscopic analysis; assay type: functional, organism-based; conditions: time 30.0 day
[3] = tested on: Plasmodium berghei; test: Antiplasmodial activity against Plasmodium berghei infected in Swiss Webster mouse model assessed as reduction in parasitemia at 6 mg/kg, po administered once daily for 4 days and measured after 30 days by Giemsa staining based microscopic analysis; assay type: functional, organism-based; conditions: time 30.0 day
[4] = tested on: Plasmodium berghei; test: Antiplasmodial activity against Plasmodium berghei infected in Swiss Webster mouse model assessed as reduction in parasitemia at 4 mg/kg, po administered once daily for 4 days and measured after 30 days by Giemsa staining based microscopic analysis; assay type: functional, organism-based; conditions: time 30.0 day
[5] = tested on: Plasmodium berghei; test: Antiplasmodial activity against Plasmodium berghei infected in Swiss Webster mouse model assessed as reduction in parasitemia at 2 mg/kg, po administered once daily for 4 days and measured after 30 days by Giemsa staining based microscopic analysis; assay type: functional, organism-based; conditions: time 30.0 day
[6] = tested on: Plasmodium berghei; test: Antiplasmodial activity against Plasmodium berghei infected in Swiss Webster mouse model assessed as reduction in parasitemia at 80 mg/kg, po administered as single dose and measured after 11 days by Giemsa staining based microscopic analysis; assay type: functional, organism-based; conditions: time 11.0 day
[7] = Stability in human liver microsomes assessed as intrinsic clearance at 1 uM measured upto 60 mins by LC-MS/MS analysis; assay type: ADME, Microsome; conditions: read-out: CLH
[8] = tested on: Plasmodium berghei; test: Antiplasmodial activity against Plasmodium berghei infected in Swiss Webster mouse model assessed as reduction in parasitemia at 80 mg/kg, po administered as single dose and measured after 30 days by Giemsa staining based microscopic analysis; assay type: functional, organism-based; conditions: time 30.0 day
[9] = tested on: Plasmodium berghei; test: Antiplasmodial activity against Plasmodium berghei infected in Swiss Webster mouse model assessed as reduction in parasitemia at 20 mg/kg, po administered as single dose and measured after 30 days by Giemsa staining based microscopic analysis; assay type: functional, organism-based; conditions: time 30.0 day
[10] = tested on: Plasmodium berghei; test: Antiplasmodial activity against Plasmodium berghei infected in Swiss Webster mouse model assessed as reduction in parasitemia at 4 mg/kg, po administered once daily for 4 days and measured after 11 days by Giemsa staining based microscopic analysis; assay type: functional, organism-based; conditions: time 11.0 day
[11] = tested on: Plasmodium berghei; test: Antiplasmodial activity against Plasmodium berghei infected in Swiss Webster mouse model assessed as reduction in parasitemia at 30 mg/kg, po administered as single dose and measured after 11 days by Giemsa staining based microscopic analysis; assay type: functional, organism-based; conditions: time 11.0 day
[12] = tested on: Plasmodium berghei; test: Antiplasmodial activity against Plasmodium berghei infected in Swiss Webster mouse model assessed as reduction in parasitemia at 10 mg/kg, po administered once daily for 4 days and measured after 30 days by Giemsa staining based microscopic analysis; assay type: functional, organism-based; conditions: time 30.0 day
[13] = tested on: Plasmodium berghei; test: Antiplasmodial activity against Plasmodium berghei infected in Swiss Webster mouse model assessed as reduction in parasitemia at 2 mg/kg, po administered once daily for 4 days and measured after 11 days by Giemsa staining based microscopic analysis; assay type: functional, organism-based; conditions: time 11.0 day
[14] = tested on: Plasmodium berghei; test: Antiplasmodial activity against Plasmodium berghei infected in Swiss Webster mouse model assessed as reduction in parasitemia at 6 mg/kg, po administered once daily for 4 days and measured after 11 days by Giemsa staining based microscopic analysis; assay type: functional, organism-based; conditions: time 11.0 day
[15] = Aqueous solubility of the compound in PBS at pH 7.4; assay type: physicochemical
[16] = tested on: Plasmodium berghei; test: Antiplasmodial activity against Plasmodium berghei infected in Swiss Webster mouse model assessed as reduction in parasitemia at 40 mg/kg, po administered as single dose and measured after 11 days by Giemsa staining based microscopic analysis; assay type: functional, organism-based; conditions: time 11.0 day
[17] = tested on: Plasmodium berghei; test: Antiplasmodial activity against Plasmodium berghei infected in Swiss Webster mouse model assessed as reduction in parasitemia at 40 mg/kg, po administered as single dose and measured after 30 days by Giemsa staining based microscopic analysis; assay type: functional, organism-based; conditions: time 30.0 day
[18] = tested on: Plasmodium berghei; test: Antiplasmodial activity against Plasmodium berghei infected in Swiss Webster mouse model assessed as reduction in parasitemia at 10 mg/kg, po administered once daily for 4 days and measured after 11 days by Giemsa staining based microscopic analysis; assay type: functional, organism-based; conditions: time 11.0 day

| Compound | EC50 [1] [nM] | Activity [2] | Activity [3] | Activity [4] | Activity [5] | Activity [6] | microsomal CLint at 1 µM [7] [µL/min/mg] | Activity [8] | Activity [9] | Activity [10] | Activity [11] | Activity [12] | Activity [13] | Activity [14] | solubility [15] [µM] | Activity [16] | Activity [17] | Activity [18] |
| --- | --- | --- | --- | --- | --- | --- | --- | --- | --- | --- | --- | --- | --- | --- | --- | --- | --- | --- |
| c1cc([C@H]2CCC[C@@]3(C2)OOC2(O3)C3CC4CC(C3)CC2C4)ccc1OCCN1CCOCC1 (stereo not given in full) | 24.1 | inactive | inactive | inactive | inactive | Active | 21.3 | Active | inactive | inactive | Active | inactive | inactive | inactive | – | – | – | – |
| O=C([O-])Cc1ccccc1Nc1c(Cl)cccc1Cl.[Na+] [DICLOFENAC SODIUM] | – | – | – | – | – | – | – | – | – | – | – | – | – | – | 199 | – | – | – |
| C[C@@H]1CC[C@H]2[C@@H](C)C(=O)O[C@@H]3O[C@@]4(C)CC[C@@H]1[C@]32OO4 [ARTEMISININ] | 17.3 | – | – | – | – | – | – | – | – | – | – | – | – | – | – | – | – | – |
| c1cc([C@H]2CC[C@@]3(CC2)OOC2(O3)C3CC4CC(C3)CC2C4)ccc1OCCN1CCOCC1 (stereo not given in full) | 11.2 | Active | Active | – | – | Active | – | Active | Active | Active | Active | Active | – | Active | < 2.5 | Active | Active | Active |
